These results are taken from US11590116B2 (THERAVANCE BIOPHARMA R&D IP, LLC, priority 2019, dated 2023).

In assay [1] the target is T1, recombinant human ALK5 (TGF-βR1) protein (Homo sapiens, UniProt P36897).
T1 construct: purchased Life Technologies PR9075A
T1 sequence (P36897 34-503): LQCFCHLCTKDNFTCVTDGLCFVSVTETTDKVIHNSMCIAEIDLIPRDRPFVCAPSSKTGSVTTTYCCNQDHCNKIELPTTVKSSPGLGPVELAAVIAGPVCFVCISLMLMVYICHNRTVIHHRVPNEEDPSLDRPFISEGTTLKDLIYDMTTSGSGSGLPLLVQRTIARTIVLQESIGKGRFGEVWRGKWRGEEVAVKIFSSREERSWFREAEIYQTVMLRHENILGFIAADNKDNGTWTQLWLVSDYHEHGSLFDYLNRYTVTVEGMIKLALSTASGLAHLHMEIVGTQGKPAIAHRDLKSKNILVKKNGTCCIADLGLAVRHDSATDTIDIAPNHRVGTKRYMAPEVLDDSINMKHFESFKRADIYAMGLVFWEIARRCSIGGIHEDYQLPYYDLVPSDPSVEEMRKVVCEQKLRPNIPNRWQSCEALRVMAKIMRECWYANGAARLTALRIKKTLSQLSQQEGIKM
The assay is described as follows: Biochemical ALK5 (TGF-βR1) assay to measure pKi (LANCE Ultra ULight kinase assay). As to conditions: apparent pKi from pIC50 by Cheng-Prusoff, read-out: ALK5 pKi (converted). The gist of the method:
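Dose range 10 μM–25 pM; enzyme + compound 60 min RT; ATP added (5× stock 125 μM, 2 mM DTT); 60 min 37 °C; stop with EDTA + Eu anti-phospho-Topo IIα Thr1342 Ab; TR-FRET ex 320/340, em 665 nm. 4-param pIC50 → pKi (Cheng-Prusoff).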
On the technique in general: TR-FRET usually uses a lanthanide donor and a delayed reading to cut background.

The subject of assay [2] is TGF-β-stimulated SMAD3 phosphorylation in BEAS-2B cells. The assay is described as follows: Cellular ALK5 potency assay, inhibition of TGF-β stimulated pSMAD3 formation in BEAS-2B cells. To be noted: Homo sapiens; inhibition of TGF-β stimulated pSMAD3 formation, BEAS-2B cells; read-out: BEAS2B pIC50 (converted). Type of assay: cell-based. The gist of the method: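 Potency is reported as pIC50, derived from concentration-dependent reduction of pSMAD3 AlphaLISA signal against TGF-β-stimulated cells without compound. BEAS-2B cells received compound for 1 h before a 30-min stimulation with 10 ng/mL TGF-β.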

With `COc1[nH]nc(-c2cccc(C)n2)c1-c1ccc2ncc(N)cc2n1` [Compound 600, 6-(5-methoxy-3-(6-methylpyridin-2-yl)-1H-pyrazol-4-yl)-1,5-naphthyridin-3-amine], the Ki in assay [1] was 0.0398 to 0.316 nM. The IC50 in assay [2] was 25.1 to 158 nM.
As to `Cc1cccc(-c2[nH]cnc2-c2ccc3ncc(C4=CCC(O)CC4)cc3c2)n1` (stereo not shown) [Compound 432, 4-[6-[5-(6-methyl-2-pyridyl)-1H-imidazol-4-yl]-3-quinolyl]cyclohex-3-en-1-ol], the Ki in assay [1] is < 0.0316 nM. For the same compound, in assay [2], the IC50 is < 20 nM.
Turning to `Cc1cccc(-c2n[nH]cc2-c2ccc3ncc(-c4cnn(CCN)c4)cc3c2)n1` [Compound 435, 2-[4-[6-[3-(6-methyl-2-pyridyl)-1H-pyrazol-4-yl]-3-quinolyl]pyrazol-1-yl]ethanamine], the Ki in assay [1] was < 0.0316 nM. For the same compound, the IC50 in assay [2] is 25.1 to 158 nM.
In the same order, the values of `Cc1cccc(-c2[nH]cnc2-c2ccc3ncc(C(=O)OCC4CNC4)cc3c2)n1` [Compound 700, azetidin-3-ylmethyl 6-[5-(6-methyl-2-pyridyl)-1H-imidazol-4-yl]quinoline-3-carboxylate] are 0.0398 to 0.316 nM and 25.1 to 158 nM.
Turning to `Cc1cccc(-c2n[nH]cc2-c2ccc3ncc(NCC4CCCCN4)cc3n2)n1` (stereo not shown) [Compound 375, 6-[3-(6-methyl-2-pyridyl)-1H-pyrazol-4-yl]-N-(2-piperidylmethyl)-1,5-naphthyridin-3-amine], the Ki in assay [1] was 0.0398 to 0.316 nM. The IC50 in assay [2] was 25.1 to 158 nM.
In the same order, the values of `Cc1cccc(-c2[nH]cnc2-c2ccc3ncc(-c4ccc(C(=O)O[C@H]5CCN(C)C5)nc4)cc3c2)n1` [Compound 722, [(3S)-1-methylpyrrolidin-3-yl] 5-[6-[5-(6-methyl-2-pyridyl)-1H-imidazol-4-yl]-3-quinolyl]pyridine-2-carboxylate] are 0.0398 to 0.316 nM and < 20 nM.
In the case of `Cc1cccc(-c2n[nH]cc2-c2ccc3ncc(CCCN4CCOCC4)cc3n2)n1` [Compound 261, 4-[3-[6-[3-(6-methyl-2-pyridyl)-1H-pyrazol-4-yl]-1,5-naphthyridin-3-yl]propyl]morpholine], the Ki in assay [1] is 0.0398 to 0.316 nM. Moreover, the IC50 in assay [2] was 25.1 to 158 nM.
As for `Cc1cccc(-c2[nH]cnc2-c2ccc3ncc(-c4ccc5c(c4)C(N)CC5)cc3c2)n1` (stereo not shown) [Compound 726, 6-[6-[5-(6-methyl-2-pyridyl)-1H-imidazol-4-yl]-3-quinolyl]indan-1-amine], the Ki in assay [1] is < 0.0316 nM. For the same compound, the IC50 in assay [2] is 25.1 to 158 nM.
On to `CC(C)N1CCN(CCNc2cnc3ccc(-c4c[nH]nc4-c4cccc(C(F)(F)F)n4)nc3c2)CC1` [Compound 201, N-(2-(4-isopropylpiperazin-1-yl)ethyl)-6-(3-(6-(trifluoromethyl)pyridin-2-yl)-1H-pyrazol-4-yl)-1,5-naphthyridin-3-amine], for which, in assay [1], the Ki was 0.0398 to 0.316 nM. Moreover, the IC50 in assay [2] is 25.1 to 158 nM.
`Cc1cccc(-c2[nH]cnc2-c2ccc3ncc(-c4ccc(C(=O)OCCN5CCNCC5)s4)cc3c2)n1` [Compound 1088, 2-piperazin-1-ylethyl 5-[6-[5-(6-methyl-2-pyridyl)-1H-imidazol-4-yl]-3-quinolyl]thiophene-2-carboxylate]: the Ki in assay [1] is 0.0398 to 0.316 nM. For the same compound, the IC50 in assay [2] is 25.1 to 158 nM.
`CC(=O)Oc1ccnc2ccc(-c3c[nH]nc3-c3cccc(C)n3)nc12` [Compound 857, [6-[3-(6-methyl-2-pyridyl)-1H-pyrazol-4-yl]-1,5-naphthyridin-4-yl]acetate]: the Ki in assay [1] is 0.398 to 3.16 nM. Besides, in assay [2], the IC50 is 25.1 to 158 nM.
As for `Cc1cccc(-c2n[nH]cc2-c2ccc3ncc(N4CCC5(CCNC5)C4)cc3n2)n1` (stereo not shown) [Compound 10, 7-(2,7-diazaspiro[4.4]nonan-2-yl)-2-[3-(6-methyl-2-pyridyl)-1H-pyrazol-4-yl]-1,5-naphthyridine], the Ki in assay [1] is 0.0398 to 0.316 nM. Moreover, the IC50 in assay [2] was 200 to 1260 nM.
For `Cc1nc(-c2nc3ccccn3c2-c2ccc3ncc(-c4cnc5n4CCNC5)cc3n2)ccc1F` [Compound 560, 2-[2-(5-fluoro-6-methyl-2-pyridyl)imidazo[1,2-a]pyridin-3-yl]-7-(5,6,7,8-tetrahydroimidazo[1,2-a]pyrazin-3-yl)-1,5-naphthyridine], the Ki in assay [1] was 0.0398 to 0.316 nM. Moreover, in assay [2], the IC50 was 25.1 to 158 nM.
On to `Cc1nc(-c2n[nH]cc2-c2ccc3ncc(-c4ccc5c(n4)CCNC5)cc3n2)ccc1F` [Compound 34, 2-[3-(5-fluoro-6-methyl-2-pyridyl)-1H-pyrazol-4-yl]-7-(5,6,7,8-tetrahydro-1,6-naphthyridin-2-yl)-1,5-naphthyridine], for which the Ki in assay [1] was < 0.0316 nM. Besides, the IC50 in assay [2] is 25.1 to 158 nM.
For `Cc1nc(-c2n[nH]cc2-c2ccc3ncc(-c4[nH]nc5c4CCNC5)cc3n2)ccc1F` [Compound 7, 2-[3-(5-fluoro-6-methyl-2-pyridyl)-1H-pyrazol-4-yl]-7-(4,5,6,7-tetrahydro-2H-pyrazolo[3,4-c]pyridin-3-yl)-1,5-naphthyridine], in assay [1], the Ki was 0.0398 to 0.316 nM. Also, in assay [2], the IC50 was 200 to 1260 nM.
In the case of `Cc1cccc(-c2n[nH]cc2-c2ccc3ncc(-c4cnn5c4NCCC5)cc3n2)n1` [Compound 525, 2-[3-(6-methyl-2-pyridyl)-1H-pyrazol-4-yl]-7-(4,5,6,7-tetrahydropyrazolo[1,5-a]pyrimidin-3-yl)-1,5-naphthyridine], the Ki in assay [1] is < 0.0316 nM. Moreover, the IC50 in assay [2] is < 20 nM.
On to `Cc1cccc(-c2[nH]cnc2-c2ccc3nccc(C(=O)OCC4CCNCC4)c3c2)n1` [Compound 1078, 4-piperidylmethyl 6-[5-(6-methyl-2-pyridyl)-1H-imidazol-4-yl]quinoline-4-carboxylate], for which the Ki in assay [1] is 0.398 to 3.16 nM. Also, in assay [2], the IC50 was 25.1 to 158 nM.
For `Cc1nc(-c2n[nH]cc2-c2ccc3ncc(-c4nc(C)c(CCN)[nH]4)cc3n2)ccc1F` [Compound 483, 2-[2-[6-[3-(5-fluoro-6-methyl-2-pyridyl)-1H-pyrazol-4-yl]-1,5-naphthyridin-3-yl]-4-methyl-1H-imidazol-5-yl]ethanamine], in that order: 0.0398 to 0.316 nM and 200 to 1260 nM.
For `Cc1cccc(-c2nc3ccccn3c2-c2ccc3ncc(-c4cnc5n4CCN5)cc3n2)n1` [Compound 23, 7-(6,7-dihydro-5H-imidazo[1,2-a]imidazol-3-yl)-2-[2-(6-methyl-2-pyridyl)imidazo[1,2-a]pyridin-3-yl]-1,5-naphthyridine], in that order: < 0.0316 nM and 25.1 to 158 nM.
In the same order, the values of `CNCCn1ccc(-c2cnc3ccc(-c4c[nH]nc4-c4ccc(F)c(C)n4)nc3c2)n1` [Compound 108, 2-[3-[6-[3-(5-fluoro-6-methyl-2-pyridyl)-1H-pyrazol-4-yl]-1,5-naphthyridin-3-yl]pyrazol-1-yl]-N-methyl-ethanamine] are 0.0398 to 0.316 nM and 25.1 to 158 nM.
Turning to `Cc1cccc(-c2n[nH]cc2-c2ccc3nccc(C(=O)NCCCCC(NC(=O)CN)C(=O)O)c3n2)n1` (racemic) [Compound 805, rac-(2S)-2-[(2-aminoacetyl)amino]-6-[[6-[3-(6-methyl-2-pyridyl)-1H-pyrazol-4-yl]-1,5-naphthyridine-4-carbonyl]amino]hexanoic acid], the Ki in assay [1] was 0.398 to 3.16 nM. Further, in assay [2], the IC50 was 1580 to 10000 nM.
Take `COC(=O)[C@H]1CNCCN1CCNc1cnc2ccc(-c3nc[nH]c3-c3cccc(C)n3)cc2c1` [Compound 723, methyl (2R)-1-[2-[[6-[5-(6-methyl-2-pyridyl)-1H-imidazol-4-yl]-3-quinolyl]amino]ethyl]piperazine-2-carboxylate]: in assay [1], the Ki was 0.0398 to 0.316 nM. For the same compound, in assay [2], the IC50 was 200 to 1260 nM.
In the same order, the values of `Cc1cccc(-c2n[nH]cc2-c2ccc3ncc(NCC4CCCNC4)cc3n2)n1` (stereo not shown) [Compound 199, 6-[3-(6-methyl-2-pyridyl)-1H-pyrazol-4-yl]-N-(3-piperidylmethyl)-1,5-naphthyridin-3-amine] are 0.0398 to 0.316 nM and 200 to 1260 nM.
With `Cc1cccc(-c2[nH]ncc2-c2ccc3ncc(C(=O)O)cc3n2)n1` [Compound 553, 6-[5-(6-methyl-2-pyridyl)-1H-pyrazol-4-yl]-1,5-naphthyridine-3-carboxylic acid], in assay [1], the Ki was 3.98 to 31.6 nM. Besides, the IC50 in assay [2] is 1580 to 10000 nM.
In the case of `Cc1cccc(-c2[nH]cnc2-c2ccc3ncc(-c4nc(C(=O)OCC5CNC5)cs4)cc3c2)n1` [Compound 746, azetidin-3-ylmethyl 2-[6-[5-(6-methyl-2-pyridyl)-1H-imidazol-4-yl]-3-quinolyl]thiazole-4-carboxylate], in assay [1], the Ki is < 0.0316 nM. Further, the IC50 in assay [2] was 25.1 to 158 nM.
Regarding `Cc1cccc(-c2n[nH]cc2-c2ccc3nccc(-c4cnco4)c3n2)n1` [Compound 824, 5-[6-[3-(6-methyl-2-pyridyl)-1H-pyrazol-4-yl]-1,5-naphthyridin-4-yl]oxazole], in assay [1], the Ki was 0.0398 to 0.316 nM. The IC50 in assay [2] is < 20 nM.
